Measured values as given in the supplement of paper PMC10307832.

How the values were obtained:
Assay in all cases: relative viability (nuclei count vs DMSO), 5 days (fraction); higher = more cells survive
[1] = compound: C1/C(=C\C2=CC=CS2)/C(=O)/C(=C/C3=CC=CS3)/C1 + CS(=O)(=O)CCNCc1ccc(-c2ccc3ncnc(Nc4ccc(OCc5cccc(F)c5)c(Cl)c4)c3c2)o1 [Lapatinib] (partner 2 µM)
Outline: (§1)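 Lung cancer cell lines were pin-tool dosed in 1536-well plates on the day after seeding, with either a lone drug or a fixed anchor-drug dose plus five library-drug doses (not always all listed) in √10 steps. Nuclei were counted on 4× images after 5 days. Relative viability is the ratio of treated-well to vehicle-well nuclei counts, with each value a median of duplicate plates.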

TPCA-1 + Navitoclax = compound: C1=CC(=CC=C1C2=CC(=C(S2)NC(=O)N)C(=O)N)F [TPCA-1] + CC1(C)CCC(c2ccc(Cl)cc2)=C(CN2CCN(c3ccc(C(=O)NS(=O)(=O)c4ccc(N[C@H](CCN5CCOCC5)CSc5ccccc5)c(S(=O)(=O)C(F)(F)F)c4)cc3)CC2)C1 [Navitoclax] (partner 0.5 µM)
Outline: as §1

Lestaurtinib + OSI-027 = compound: C[C@]12O[C@H](C[C@]1(O)CO)n1c3ccccc3c3c4c(c5c6ccccc6n2c5c31)CNC4=O [Lestaurtinib] + COc1cccc2cc(-c3nc([C@H]4CC[C@H](C(=O)O)CC4)n4ncnc(N)c34)[nH]c12 [OSI-027] (partner 0.5 µM)
Outline: as §1

[2] = compound: C1/C(=C\C2=CC=CS2)/C(=O)/C(=C/C3=CC=CS3)/C1 + CCNC(=O)c1noc(-c2cc(C(C)C)c(O)cc2O)c1-c1ccc(CN2CCOCC2)cc1 [Luminespib] (partner 0.01 µM)
Outline: as §1

Row | Cell Line | relative viability ([1]; first compound 0.2 µM) | relative viability ([1]; first compound 0.6325 µM) | relative viability ([1]; first compound 2 µM) | relative viability ([1]; first compound 6.325 µM) | relative viability ([1]; first compound 20 µM) | relative viability (TPCA-1 + Navitoclax; first compound 0.04 µM) | relative viability (TPCA-1 + Navitoclax; first compound 0.1265 µM) | relative viability (TPCA-1 + Navitoclax; first compound 0.4 µM) | relative viability (TPCA-1 + Navitoclax; first compound 1.265 µM) | relative viability (TPCA-1 + Navitoclax; first compound 4 µM) | relative viability (Lestaurtinib + OSI-027; first compound 0.005 µM) | relative viability (Lestaurtinib + OSI-027; first compound 0.01581 µM) | relative viability (Lestaurtinib + OSI-027; first compound 0.05 µM) | relative viability (Lestaurtinib + OSI-027; first compound 0.1581 µM) | relative viability (Lestaurtinib + OSI-027; first compound 0.5 µM) | relative viability ([2]; first compound 0.2 µM) | relative viability ([2]; first compound 0.6325 µM) | relative viability ([2]; first compound 2 µM) | relative viability ([2]; first compound 20 µM) | relative viability ([2]; first compound 6.325 µM)
1 | COR-L 105 | 0.355 | 0.37 | 0.38 | 0.304 | 0.361 | 0.964 | 0.642 | 0.962 | 0.636 | 0.64 | 0.616 | 0.696 | 0.565 | 0.441 | 0.23 | 0.97 | 0.502 | 0.808 | 0.586 | 
2 | NCI-H1993 | 0.815 | 0.783 | 0.731 | 0.685 | 0.781 | 1.01 |  | 0.794 | 0.756 | 0.809 | 0.59 | 0.555 | 0.524 | 0.534 | 0.423 | 0.727 | 0.765 | 0.726 | 1.78 | 0.763
3 | NCI-H1437 | 0.751 | 0.788 | 0.791 | 0.748 | 0.692 | 1.11 | 1.05 | 1.13 | 1.07 | 1.08 | 0.885 | 0.949 | 0.952 | 0.747 | 0.698 | 1.26 | 1.23 | 1.06 | 1.09 | 0.95
4 | NCI-H838 | 1.01 | 0.889 | 0.994 | 0.926 | 0.866 | 1.23 | 0.985 | 1.13 | 0.995 | 0.812 | 0.399 | 0.441 | 0.397 | 0.446 | 0.228 | 0.387 | 0.253 | 0.309 | 0.281 | 0.222
5 | NCI-H1666 | 0.633 | 0.59 | 0.565 | 0.561 | 0.614 | 1.12 | 0.848 | 1.03 | 0.943 | 1.05 | 0.904 | 0.934 | 0.917 | 0.757 | 0.518 | 1.09 | 1.01 | 1.02 | 1.04 | 0.49
6 | NCI-H1944 | 0.735 | 0.695 | 0.864 | 0.782 | 0.748 | 1.07 | 0.949 | 1.06 | 0.921 | 0.823 | 0.483 | 0.406 | 0.322 | 0.31 | 0.292 | 0.762 | 0.731 | 0.674 | 0.626 | 0.695
7 | NCI-H2023 | 0.877 | 0.87 | 0.889 | 0.734 | 0.67 | 1.14 | 0.98 | 1.04 | 0.938 | 0.912 | 0.375 | 0.407 | 0.341 | 0.296 | 0.104 | 0.864 | 0.642 | 0.735 | 0.677 | 0.515
8 | NCI-H1755 | 1.07 | 1.03 | 1.09 | 0.882 | 0.993 | 0.998 | 0.95 | 0.949 | 0.847 | 0.696 | 0.814 | 0.706 | 0.471 | 0.406 | 0.338 | 0.51 | 0.402 | 0.642 | 0.274 | 0.341
9 | NCI-H23 | 0.918 | 1.4 | 1.44 | 0.861 | 1.12 | 0.823 | 0.742 | 0.687 | 0.616 | 0.694 | 0.592 | 0.719 | 0.596 | 0.418 | 0.345 | 0.237 | 0.197 | 0.2 | 0.194 | 0.203
10 | 201T | 1.01 | 1.01 | 1.14 | 0.979 | 1.05 | 1.2 | 1.17 | 1.19 | 1.2 | 1.25 | 0.766 | 0.982 |  | 0.63 | 0.447 | 1.14 | 1.05 | 1.04 | 1.01 | 1.03
11 | NCI-H1734 | 1.02 | 1.05 | 1.17 | 0.906 | 1.09 | 0.893 | 0.759 | 0.871 | 0.779 | 0.697 | 0.678 | 0.571 | 0.368 | 0.362 | 0.187 | 0.193 | 0.19 | 0.209 | 0.211 | 0.22
12 | NCI-H520 | 0.912 | 0.896 | 0.786 | 0.817 | 0.763 | 1.17 | 0.96 | 1.1 | 0.977 | 1.08 | 0.299 | 0.286 | 0.272 | 0.206 | 0.196 | 0.231 | 0.218 | 0.212 | 0.242 | 0.209
13 | NCI-H1650 | 0.654 | 0.735 | 0.961 | 0.748 | 0.803 | 1.3 | 1.05 | 1.27 | 1.09 | 1.1 | 0.642 | 0.829 | 0.594 | 0.652 | 0.357 | 0.176 | 0.194 | 0.205 | 0.185 | 0.218
14 | NCI-H1355 | 0.964 | 0.951 | 1.04 | 0.908 | 0.911 | 1.02 | 0.903 | 0.912 | 0.826 | 0.686 | 0.387 | 0.438 | 0.362 | 0.309 | 0.286 | 0.71 | 0.7 | 0.733 | 0.662 | 0.687
15 | NCI-H1915 | 0.984 | 0.996 | 0.964 | 0.937 | 1.03 | 0.788 | 0.733 | 0.783 | 0.771 | 0.694 | 0.687 | 0.477 | 0.42 | 0.337 | 0.246 | 0.851 | 0.786 | 0.741 | 0.821 | 0.356
16 | BEN | 0.621 | 0.801 | 0.795 | 0.488 | 0.611 | 0.0874 | 0.0533 | 0.0644 | 0.0802 | 0.0674 | 0.463 | 0.313 | 0.3 | 0.298 | 0.196 | 0.477 | 0.403 | 0.476 | 0.253 | 0.344
17 | NCI-H3122 | 1 | 1.06 | 1.04 | 0.877 | 0.995 | 0.995 | 1.01 | 1.04 | 1.02 | 1.01 | 1.36 | 1.4 | 0.99 | 0.875 | 0.339 | 0.112 | 0.0975 | 0.0926 | 0.086 | 0.0901
18 | SK-MES-1 | 0.498 | 0.45 | 0.486 | 0.322 | 0.395 | 1.3 | 1.07 | 1.22 | 1.16 | 0.797 | 0.536 | 0.486 | 0.407 | 0.342 | 0.151 | 0.868 | 0.646 | 0.839 | 0.773 | 0.545
19 | HOP-62 | 0.902 | 0.589 | 0.9 | 0.932 | 0.983 | 0.982 | 1.06 | 1.02 | 0.899 | 0.809 | 0.936 | 0.958 | 0.498 | 0.643 | 0.415 | 0.992 | 1.03 | 0.909 | 0.918 | 0.861
20 | NCI-H2347 | 1.03 | 0.977 | 0.901 | 0.898 | 0.915 | 0.788 | 0.855 | 0.726 | 0.568 | 0.762 | 0.402 | 0.423 | 0.409 | 0.33 | 0.367 | 0.405 | 0.959 | 0.381 | 0.466 | 
21 | LXF-289 | 0.926 | 0.915 | 0.886 | 0.792 | 0.91 | 0.937 | 0.907 | 0.949 | 0.915 | 0.839 | 0.805 | 0.677 | 0.491 | 0.536 | 0.391 | 0.705 | 0.735 | 0.633 | 0.691 | 0.611
22 | NCI-H1793 | 0.913 | 0.611 | 0.86 | 0.519 | 0.674 | 0.425 | 0.354 | 0.413 | 0.342 | 0.319 | 0.291 | 0.257 | 0.242 | 0.274 | 0.183 | 0.229 | 0.178 | 0.189 | 0.179 | 0.153
23 | LU99A | 0.914 | 0.958 | 1.23 | 0.785 | 0.95 | 0.976 | 0.77 | 0.802 | 0.766 | 0.473 | 0.288 | 0.263 | 0.262 | 0.249 | 0.203 | 0.245 | 0.201 | 0.268 | 0.281 | 0.224
24 | PC-14 | 0.352 | 0.362 | 0.353 | 0.293 | 0.27 | 1.03 | 0.876 | 1.01 | 1.09 | 0.913 | 0.805 | 0.592 | 0.609 | 0.623 | 0.116 | 0.139 | 0.145 | 0.179 | 0.15 | 0.187
25 | NCI-H2085 | 0.876 | 0.768 | 0.876 | 0.692 | 0.701 | 1.14 | 1.1 | 1.2 | 1.12 | 1.13 | 0.707 | 0.822 | 0.801 | 0.658 | 0.521 | 0.446 | 0.433 | 0.453 | 0.503 | 0.41
26 | NCI-H2170 | 0.301 | 0.255 | 0.282 | 0.232 | 0.283 | 0.666 | 0.52 | 0.497 | 0.559 | 0.264 | 0.726 | 0.523 | 0.45 | 0.561 | 0.471 | 0.98 | 0.582 | 0.788 | 0.719 | 0.632
27 | NCI-H1395 | 1.04 | 1.13 | 1.11 | 0.886 | 1.15 | 1.2 | 0.932 | 1.25 | 1.05 | 0.99 | 0.546 | 0.655 | 0.5 | 0.482 | 0.374 | 0.743 | 0.701 | 0.704 | 0.663 | 0.738
